# Test results from patent US12384776B2, “Compounds and uses thereof” (Foghorn Therapeutics Inc., priority 2019, dated 2025).
# Molecular target: Nanoluciferase-BRD9 fusion protein (3×FLAG-NLuc-BRD9) in SYO-1 cells (Homo sapiens (Human), UniProt Q9H8M2)
# Assay: SYO1 BRD9 NanoLuc degradation assay
# Format: cell-based
# Conditions: SYO-1 cells expressing 3×FLAG-NLuc-BRD9, 6 hours incubation, top dose 1 μM
# Summary of the method: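 Degradation read as loss of NLuc signal after 6 h compound exposure (1 μM top final, 3-fold steps, 10 points, duplicates) in SYO-1 cells stably carrying 3×FLAG-NLuc-BRD9. Signal normalised between DMSO-treated cells and cells given 1 μM of a known BRD9 degrader.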
# Sequence of Nanoluciferase-BRD9 fusion protein (3×FLAG-NLuc-BRD9) in SYO-1 cells (Q9H8M2 whole entry, the tested form may be a part): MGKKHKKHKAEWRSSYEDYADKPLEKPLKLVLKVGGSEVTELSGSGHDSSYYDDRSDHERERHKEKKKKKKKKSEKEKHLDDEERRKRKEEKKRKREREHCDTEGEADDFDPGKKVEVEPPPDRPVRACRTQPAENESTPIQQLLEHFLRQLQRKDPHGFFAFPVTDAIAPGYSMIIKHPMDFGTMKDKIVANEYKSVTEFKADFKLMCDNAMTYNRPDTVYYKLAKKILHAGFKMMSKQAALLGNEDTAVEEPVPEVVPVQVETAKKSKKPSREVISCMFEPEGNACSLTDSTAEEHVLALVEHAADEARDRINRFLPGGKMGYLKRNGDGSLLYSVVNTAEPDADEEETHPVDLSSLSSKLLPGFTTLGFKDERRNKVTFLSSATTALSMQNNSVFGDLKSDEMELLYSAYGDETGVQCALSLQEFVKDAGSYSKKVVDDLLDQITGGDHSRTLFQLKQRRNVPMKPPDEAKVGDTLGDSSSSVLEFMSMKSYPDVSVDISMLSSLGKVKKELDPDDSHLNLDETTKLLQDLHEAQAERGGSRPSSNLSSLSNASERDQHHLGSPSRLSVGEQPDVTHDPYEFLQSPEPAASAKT
row,IC50,Compound
1,< 10 nM,CNC(=O)N1Cc2c(-c3cc(OC)c(CN4CCC5(CC4)CN(c4ccc6c(c4)C(=O)N([C@@H]4CCC(=O)NC4=O)C6=O)C5)c(OC)c3)cn(C)c(=O)c2C1 [Compound D300]
2,< 10 nM,CNC(=O)N1CCc2c(-c3cc(OC)c(CN4CCC(CCN5CCN(c6ccc(-c7cnn(C8CCC(=O)NC8=O)c7)cc6)CC5)CC4)c(OC)c3)cn(C)c(=O)c2C1 (stereo not shown) [Compound D76]
3,10 to 100 nM,COc1cc(-c2cn(C)c(=O)c3c2CCN(C(=O)NCC2CC4CN(CCOc5ccc6c(c5)C(=O)N(C5CCC(=O)NC5=O)C6=O)CC4C2)C3)cc(OC)c1CN(C)C (stereo not shown) [Compound D266]
4,100 to 1000 nM,CNC(=O)N1CCc2c(-c3cc(OC)c(CN4CCN(c5cnn(C6CCC(=O)NC6=O)c5)CC4)c(OC)c3)cn(C)c(=O)c2C1 (stereo not shown) [Compound D60]
5,10 to 100 nM,CNC(=O)N1CCc2c(-c3cc(OC)c(CN4CCC(CCN5CCN(c6ccc7c(c6)C(=O)N(C6CCC(=O)NC6=O)C7=O)CC5)C4)c(OC)c3)cn(C)c(=O)c2C1 (stereo not shown) [Compound D148]
6,10 to 100 nM,COc1cc(-c2cn(C)c(=O)c3c2CCN(C(=O)NCCCN2CCC4CCN(c5ccc6c(c5)C(=O)N(C5CCC(=O)NC5=O)C6=O)C4C2)C3)cc(OC)c1CN(C)C (stereo not shown) [Compound D234]
7,< 10 nM,CNC(=O)N1CCc2c(-c3cc(OC)c(CN4CCC(CCN5CCC(c6ccc7c(c6)C(=O)N(C6CCC(=O)NC6=O)C7)CC5)CC4)c(OC)c3)cn(C)c(=O)c2C1 (stereo not shown) [Compound D73]
8,10 to 100 nM,COc1cc(-c2cn(C)c(=O)c3c2CCN(C(=O)NCCN2CCC4(CC2)CCN(c2ccc5c(c2)C(=O)N(C2CCC(=O)NC2=O)C5=O)C4)C3)cc(OC)c1CN(C)C (stereo not shown) [Compound D209]
9,100 to 1000 nM,CNC(=O)N1CCc2c(-c3cc(OC)c(CN4CC(S(=O)(=O)NCCCOc5cccc6c5C(=O)N(C5CCC(=O)NC5=O)C6=O)C4)c(OC)c3)cn(C)c(=O)c2C1 (stereo not shown) [Compound D280]
10,100 to 1000 nM,COc1cc(-c2cn(C)c(=O)c3c2CCN(C(=O)CC2CCC24CCN(CCCCN2CCN(c5ccc6c(c5)C(=O)N(C5CCC(=O)NC5=O)C6=O)CC2)CC4)C3)cc(OC)c1CN(C)C (stereo not shown) [Compound D220]
11,100 to 1000 nM,COc1cc(-c2cn(C)c(=O)c3c2CCN(C(=O)NCCOCCOCCNc2cccc4nc(C)n(C5CCC(=O)NC5=O)c(=O)c24)C3)cc(OC)c1CN(C)C (stereo not shown) [Compound D292]
12,< 10 nM,CNC(=O)N1CCc2c(-c3cc(OC)c(CN4CCC(CN5Cc6cc7c(cc6C5)C(=O)N(C5CCC(=O)NC5=O)C7=O)CC4)c(OC)c3)cn(C)c(=O)c2C1 (stereo not shown) [Compound D180]
13,< 10 nM,CNC(=O)N1CCc2c(-c3cc(OC)c(CN4CCC(C(F)(F)CN5CCN(c6ccc7c(c6)C(=O)N(C6CCC(=O)NC6=O)C7=O)CC5)CC4)c(OC)c3)cn(C)c(=O)c2C1 (stereo not shown) [Compound D154]

# Same assay, conditions: SYO-1 cells, 6 hours, Table 6C
row,IC50,Compound
1,< 10 nM,CNC(=O)N1CCc2c(-c3cc(OC)c(CN4CCN(CCC5CCN(c6ccc7c(c6)C(=O)N(C6CCC(=O)NC6=O)C7)CC5)CC4COC)c(OC)c3)cn(C)c(=O)c2C1 (stereo not shown) [Compound D340]
2,< 10 nM,COc1cc(-c2cn(C)c(=O)c3c2CCC3)cc(OC)c1CN1CC(C#Cc2ccc3c(c2)CN(C2CCC(=O)NC2=O)C3=O)C1 (stereo not shown) [Compound D369]
3,< 10 nM,[2H]C([2H])([2H])n1cc(-c2cc(OC)c(CN3CCN(CCC4CCN(c5ccc6c(c5)CN(C5CCC(=O)NC5=O)C6=O)CC4)CC3)c(OC)c2)c2c(c1=O)CN(C(=O)NCC(F)F)CC2 (stereo not shown) [Compound D317]

# Molecular target: BRD9 bromodomain (Homo sapiens (Human), UniProt Q9H8M2)
# Sequence (Q9H8M2 133-239): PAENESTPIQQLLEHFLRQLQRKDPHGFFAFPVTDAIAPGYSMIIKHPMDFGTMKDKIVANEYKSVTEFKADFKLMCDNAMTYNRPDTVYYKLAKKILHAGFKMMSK
# Assay: BRD9 bromodomain TR-FRET competition binding assay
# Conditions: not given
# Experimental: Procedure: His-Flag-BRD9 (P133-K239; Swiss Prot Q9H8M2; SEQ ID NO:1 mgsshhhhhhenlyfq/gdykddddkgslevlfqg/[…] […]) was cloned, expressed, purified, and then treated with TEV protease. Cleaved His tag was removed by purification. The binding of a biotinylated small molecule ligand of BRD9 was assessed via the LANCE® TR-FRET platform (PerkinElmer), and the compounds were assayed for inhibitory activity against this interaction.
# Results: A mixture of biotinylated-ligand and SureLight™ Allophycocyanin-Streptavidin (APC-SA, PerkinElmer AD0201) in 50 mM HEPES (pH 7.4), 50 mM NaCl, 1 mM TCEP (pH 7), 0.01% (v/v) Tween-20, 0.01% (w/v) bovine serum albumin was added to a white 384-well PerkinElmer Proxiplate Plus plate. DMSO or 3-fold serially diluted compounds were then added to the Proxiplate followed by addition of Flag-BRD9. After a 10-minute incubation at room temperature, Eu—W1024 anti-FLAG (PerkinElmer, AD0273) was added. The final reaction mixture that contained 3.75 nM biotinylated ligand, 3 nM Flag-BRD9, 7.5 nM SureLight™ Allophycocyanin-Streptavidin, and 0.2 nM Eu—W1024 anti-FLAG was incubated at room temperature for 90 minutes.
# The plates were then read on a PerkinElmer Envision plate reader to determine the ratio of emission at 665 nm over 615 nm. […]
row,IC50,Compound
1,< 10 nM,"CNC(=O)N1CCc2c(-c3cc(OC)c(CN(C)C)c(OC)c3)cn(C)c(=O)c2C1 [Compound B9, 5-(4-((dimethylamino)methyl)-3,5-dimethoxyphenyl)-N,7-dimethyl-8-oxo-3,4,7,8-tetrahydro-2,7-naphthyridine-2 (1H)-carboxamide]"
2,> 1000 nM,"CNC(=O)C1Cc2c(c(-c3cc(OC)c(CN(C)C)c(OC)c3)cn(C)c2=O)CN1 (stereo not shown) [Compound B3, 8-[4-[(dimethylamino)methyl]-3,5-dimethoxyphenyl]-N,6-dimethyl-5-oxo-1,2,3,4,5,6-hexahydro-2,6-naphthyridine-3-carboxamide]"
3,> 1000 nM,"COc1cc(-c2cn(C)c(=O)c3c2CCN(CCO)C3)cc(OC)c1CN(C)C [Compound B10, 4-[4-[(dimethylamino)methyl]-3,5-dimethoxyphenyl]-7-(2-hydroxyethyl)-2-methyl-1,2,5,6,7,8-hexahydro-2,7-naphthyridin-1-one]"
4,> 1000 nM,"COc1cc(-c2cn(C)c(=O)c3c2CNC(C(=O)O)C3)cc(OC)c1CN(C)C (stereo not shown) [Compound B2, 8-[4-[(dimethylamino)methyl]-3,5-dimethoxyphenyl]-6-methyl-5-oxo-1,2,3,4,5,6-hexahydro-2,6-naphthyridine-3-carboxylic acid]"
5,> 1000 nM,"CCOC(=O)N1CCc2c(-c3cc(OC)c(CN(C)C)c(OC)c3)cn(C)c(=O)c2C1 [Compound B11, ethyl 5-[4-[(dimethylamino)methyl]-3,5-dimethoxyphenyl]-7-methyl-8-oxo-1,2,3,4,7,8-hexahydro-2,7-naphthyridine-2-carboxylate]"
6,> 100 nM,"COc1cc(-c2cn(C)c(=O)c3c2CCN(C(=O)N(C)C)C3)cc(OC)c1CN(C)C [Compound B6, 5-(4-((dimethylamino)methyl)-3,5-dimethoxyphenyl)-N,N,7-trimethyl-8-oxo-3,4,7,8-tetrahydro-2,7-naphthyridine-2 (1H)-carboxamide]"
7,> 1000 nM,"COc1cc(-c2cn(C)c(=O)c3c2CCN(C)C3)cc(OC)c1CN(C)C [Compound B16, 4-[4-[(dimethylamino)methyl]-3,5-dimethoxyphenyl]-2,7-dimethyl-1,2,5,6,7,8-hexahydro-2,7-naphthyridin-1-one formic acid]"
8,> 10 nM,"CCCCNC(=S)N1CCc2c(-c3cc(OC)c(CN(C)C)c(OC)c3)cn(C)c(=O)c2C1 [Compound B20, N-butyl-5-(4-((dimethylamino)methyl)-3,5-dimethoxyphenyl)-7-methyl-8-oxo-3,4,7,8-tetrahydro-2,7-naphthyridine-2 (1H)-carbothioamide]"
9,> 10 nM,"CCCCNS(=O)(=O)N1CCc2c(-c3cc(OC)c(CN(C)C)c(OC)c3)cn(C)c(=O)c2C1 [Compound B19, N-butyl-5-{4-[(dimethylamino)methyl]-3,5-dimethoxyphenyl}-7-methyl-8-oxo-1,2,3,4,7,8-hexahydro-2,7-naphthyridine-2-sulfonamide]"
10,> 10 nM,"CNC(=O)N1CCc2c(c(-c3cc(OC)c(CN(C)C)c(OC)c3)cn(C)c2=O)C1 [Compound B18, 8-[4-[(dimethylamino)methyl]-3,5-dimethoxyphenyl]-N,6-dimethyl-5-oxo-3,4-dihydro-1H-2,6-naphthyridine-2-carboxamide]"
11,> 10 nM,"COc1cc(-c2cn(C)c(=O)c3c2CCN(C(=O)NCCOCCOCCOCC(=O)N[C@@H](C(=O)N2C[C@@H](O)C[C@@H]2C(=O)NCc2ccc(-c4scnc4C)cc2)C(C)(C)C)C3)cc(OC)c1CN(C)C [Compound D35, (2R,4S)-1-[(2R)-2-[2-(2-[2-[2-(5-[4-[(dimethylamino)methyl]-3,5-dimethoxyphenyl]-7-methyl-8-oxo-3,4-dihydro-1H-2,7-naphthyridine-2-carbonylamino)ethoxy]ethoxy]ethoxy)acetamido]-3,3-dimethylbutanoyl]-4-hydroxy-N-[[4-(4-methyl-1,3-thiazol-5-yl)phenyl]methyl]pyrrolidine-2-carboxamide]"
12,> 1000 nM,CCC(=O)N1CCc2c(-c3cc(OC)c(CN(C)C)c(OC)c3)cn(C)c(=O)c2C1 [Compound B12]
13,> 10 nM,"COc1cc(-c2cn(C)c(=O)c3c2CCN(C(=O)NCCOCCOCC(=O)N[C@H](C(=O)N2C[C@H](O)C[C@H]2C(=O)NCc2ccc(-c4scnc4C)cc2)C(C)(C)C)C3)cc(OC)c1CN(C)C [Compound D34, (2S,4R)-1-[(2S)-2-(2-[2-[2-(5-[4-[(dimethylamino)methyl]-3,5-dimethoxyphenyl]-7-methyl-8-oxo-3,4-dihydro-1H-2,7-naphthyridine-2-carbonylamino)ethoxy]ethoxy]acetamido)-3,3-dimethylbutanoyl]-4-hydroxy-N-[[4-(4-methyl-1,3-thiazol-5-yl)phenyl]methyl]pyrrolidine-2-carboxamide formic acid]"
14,> 100 nM,"COc1cc(-c2cn(C)c(=O)c3c2CN(C(=O)N(C)C)CC3)cc(OC)c1CN(C)C [Compound B21, 8-[4-[(dimethylamino)methyl]-3,5-dimethoxyphenyl]-N,N,6-trimethyl-5-oxo-3,4-dihydro-1H-2,6-naphthyridine-2-carboxamide]"
15,> 1000 nM,"CCN1CCc2c(-c3cc(OC)c(CN(C)C)c(OC)c3)cn(C)c(=O)c2C1 [Compound B15, 4-[4-[(dimethylamino)methyl]-3,5-dimethoxyphenyl]-7-ethyl-2-methyl-1,2,5,6,7,8-hexahydro-2,7-naphthyridin-1-one formic acid]"
